Measurements: the METLIN SMRT retention time set (Domingo-Almenara et al. 2019)

Assay: gradient 5% acetonitrile 3 min, to 50% in 2 min, to 85% in 15 min, held 3 min, 100 µL/min
Conditions: column: Zorbax Extend-C18 2.1 x 50 mm; eluents: water / acetonitrile, 0.1% formic acid
Method in brief: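 A Zorbax Extend-C18 column (2.1 × 50 mm, 1.8 μm) run at 100 μL/min with water and acetonitrile, both containing 0.1% formic acid, separated mixtures of ~100 pure standards. The HPLC was coupled to a quadrupole time-of-flight mass spectrometer operated in positive and negative ionization mode, with dead and dwell volumes of 40 μL and 900 μL. Each retention time was taken from a computationally picked adduct peak that was then manually inspected.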

RP-LC retention time [s]	Structure (SMILES)
1160	CCOc1cccc(-c2noc(Cc3nnc(-c4ccc(C)c(F)c4)o3)n2)c1
1040	Cc1ccc(-c2noc(Cn3c(=O)n(CC4CCCO4)c(=O)c4ccccc43)n2)cc1 (stereo not given)
577	Cc1c(C(=O)N2CCN=C2SCc2cccnc2)cccc1[N+](=O)[O-]
576	COc1cc(CC(=O)N2CCN(c3cc(C)n4c(C)nnc4n3)CC2)cc(OC)c1
821	COc1ccc(-c2csc(Nc3cccc(C)n3)n2)cc1
1090	CC1(C)CC(=O)c2cn(-c3ccccc3)c(=O)c(C(=O)Nc3ccc(F)cc3F)c2C1
849	CC1CCN(C(=O)c2cc3c(s2)CCC(C(=O)N2CCCC2)C3)CC1 (stereo not given)
805	Cc1nc2cc(N3CC(C(=O)Nc4cccc(Br)c4)CC3=O)ccc2o1 (stereo not given)
746	COCCCNC(=O)c1c(C)sc2ccn(Cc3ccc(F)cc3)c(=O)c12
841	Cc1ccccc1NC(=O)CSc1nnc2c3cc(-c4ccccc4)nn3ccn12
1040	COc1ccc(NC(=O)Cn2c(C)nc3c(sc4nc(-c5ccccc5)ccc43)c2=O)c(OC)c1
701	Cc1ccc(-c2cc(N3CCOCC3)c3cc(NC(=O)C4CC4)ccc3n2)cc1
683	Cc1cnc(C2CCC2)n1CC1CCN(S(=O)(=O)Cc2cccc(F)c2)C1 (stereo not given)
576	CCNc1cc(C)nc(N2CCN(C(=O)c3ccccc3Cl)CC2)n1
844	CCOC(=O)Cc1csc(NC(=O)CCS(=O)(=O)c2ccccc2)n1
651	O=C(COc1ccccc1)Nc1nnc(C2=COCCO2)o1
739	O=C(NCCc1ccco1)c1ccc2c(c1)NC(=O)C1CCCCN21 (stereo not given)
586	CN1c2cc(C(=O)NCc3ccncc3)ccc2C(=O)N2CCCCC21 (stereo not given)
569	Cc1ccc(-c2nc3cnccn3c2NCCC(=O)NC(C)c2cccnc2)cc1 (stereo not given)
755	Cc1ccc2nc(-c3ccccc3)c(Nc3ccc(Cl)cc3)n2c1
957	O=C(CCc1nc(-c2ccc(N3CCCC3)cc2)no1)N1CCN(c2ncccn2)CC1
630	O=C(c1cnc[nH]1)N1CC(F)(F)C[C@H]1c1nc(C2CC2)no1
949	CCc1ccc(C2=C(C)C(N3CCCN(C(=O)CC(C)(C)C)CC3)=NS2(=O)=O)cc1

RP-LC retention time [s]	Structure (SMILES)
680	Cc1noc(-c2nn(C)c3c2CN(C(=O)NC(C)(C)C)CC3)n1
550	CN(C)C[C@@H]1CN(c2ncccn2)C[C@H]1NC(=O)NCc1ccco1
695	O=C(NCc1ccccc1C(F)(F)F)C1CCN(c2cncnc2N2CCCC2)CC1
670	COc1ccc(C(=O)N2CCC(n3c(-c4ccoc4)nc4cccnc43)C2)cc1OC (stereo not given)
624	CCC(CO)NCc1ccc(-c2ccccc2)o1 (stereo not given)
928	Cc1ccc(-c2cn3c(CC(=O)NCCc4ccccc4)csc3n2)cc1C
1160	Cc1ccc(C)c(CS(=O)(=O)N2CCc3nc(-c4ccc(F)cc4)ncc3C2)c1
758	O=C(Cn1nc2c3cc(-c4ccc(F)cc4)nn3ccn2c1=O)N1CCCC1
687	O=C(NCc1ccc(F)cc1)N1CCCN(c2nc3cccnc3s2)CC1
711	CCS(=O)(=O)c1ccc(CC(=O)Nc2ccc(F)cc2F)cc1
663	CCc1ccccc1NC(=O)N1CCC(c2cc(=O)n3nccc3n2C)CC1
947	O=C(Nc1nc(-c2ccccc2)cs1)c1ccccc1[N+](=O)[O-]
681	COCCc1noc(-c2cnc3nc(C)ccc3c2Nc2ccc(OC)cc2)n1
878	Cc1cc(N2CCC(NC(=O)Nc3ccccc3Cl)C2=O)ccc1F (stereo not given)
997	COc1cccc(-c2ccc(=O)n(Cc3nc(-c4ccccc4Br)no3)n2)c1
775	O=C(CSCCSCC(=O)Nc1ccccc1)Nc1ccccc1
689	Cc1cc2[nH]c(C(=O)NCc3ccc(F)cc3)c(CN3CCOCC3)c2s1
1220	Cc1cccc(-c2nc(-c3cccc(-c4ccnn4C)c3)no2)c1
693	COc1ccc(Cl)cc1NC(=O)C1CCCN(c2nc3ccccc3nc2C(F)(F)F)C1 (stereo not given)
1080	CCOc1ccc2cccc(NC(=O)c3cnccn3)c2n1
590	CC(C)CC(=O)N1CCN(c2nc(CN3CCOCC3)cs2)CC1
720	CC1CCN(C(CNC(=O)c2cc(-c3ccc4c(c3)OCCO4)on2)c2ccco2)CC1 (stereo not given)
830	C=CCn1c(=O)c2sc(N(CC)CC)nc2n(CC(=O)Nc2c(C)cccc2C)c1=O

RP-LC retention time [s]	Structure (SMILES)
992	Cc1ccc(S(=O)(=O)N2C[C@@H]3C[C@H](NC(=O)c4cccs4)[C@H]2C3)cc1Cl
629	Cc1ccc(Cl)cc1-n1ncc2c(NCCN3CCOCC3)ncnc21
640	O=C(c1cccnc1)N1CCN(C(=O)c2nnn3c2COC(c2ccccc2)C3)CC1 (stereo not given)
792	CCn1cc(C)c(C(=O)O)c1CC(=O)N(C)c1cccc(Cl)c1
714	O=C(Cn1nc2nc(N3CCCC3)ccn2c1=O)Nc1ccc(Cl)cc1
755	Cc1nc(C)c(C(=O)N2C[C@H]3C[C@H](C2)[C@H]2CCCC(=O)N2C3)s1
570	CN1CCN(c2ncncc2N2CCC(C(=O)N3CCN(c4ccccc4)CC3)CC2)CC1
946	Cc1cc(-c2nnc(-c3ccc(F)cc3)o2)c(C)n1CC(=O)NC(C)c1ccccc1 (stereo not given)
931	CCCn1cc(CCNS(=O)(=O)c2ccc(F)c(Cl)c2)c2cccnc21
941	O=C(Nc1cccc(-c2noc(C3CC3)n2)c1)c1n[nH]c2c1CCCC2
660	Cc1cc2[nH]c(C(=O)NCc3ccc(N4CCOCC4)cc3)c(CN3CCCC3)c2s1
910	CCc1ccc(OCc2nc(CCN(C)C(=O)c3ccco3)no2)cc1
898	CCOC(=O)c1cccc(N2C=C(C#N)S(=O)(=O)c3ccccc32)c1
625	CC(=O)N1CCC2(CC1)CC(CC(=O)NCc1ccc(C)o1)CCO2 (stereo not given)
597	Cc1nc(Nc2ccccn2)sc1C(=O)N1CCN(C2CCCCC2)CC1
995	Cc1ccc(-c2nnc(-c3nc(NCc4ccco4)c4ccccc4n3)o2)cc1
808	Cc1cccc(NC(=O)N2CCC3(C2)C(=O)N(C)c2ccccc23)c1 (stereo not given)
907	COc1ccc(-c2nnc(COc3ccc(NC(=O)c4n[nH]c5c4CCCC5)cc3)o2)cc1
612	O=C1CCSc2ccc(S(=O)(=O)N3CCN(c4ccccn4)CC3)cc2N1
846	CCS(=O)(=O)N1CC(=O)N(c2ccc(C)c(C)c2)C(C)(C(=O)NCc2ccc(F)cc2)C1 (stereo not given)
748	COc1ncc(C(=O)Nc2cc(C)ccc2C)c(C)n1
1080	Cc1csc(-c2cc(S(=O)(=O)Nc3ccc(Cl)cc3F)c(C)s2)n1
674	CCC1CCCCN1C(=O)c1cnc2nc(C)ccc2c1Nc1cc(OC)cc(OC)c1 (stereo not given)

RP-LC retention time [s]	Structure (SMILES)
677	COc1ccc(C(=O)c2cnc3ccc(OC)cc3c2N2CCOCC2)cc1
670	Cc1noc2nc(CCC(=O)NCCCN3CCc4ccccc4C3)nc(N3CCCCC3)c12
569	CCNC(=O)N1CC(n2cc(C(=O)N(C)CCCc3c(C)nn(C)c3C)nn2)C1
599	NC1=C(Br)C(=O)c2ncccc2C1=O
732	CCOC1CCN(C(=O)Nc2ccccc2C)CC1
715	CCOC(=O)c1c(C)[nH]c(C(=O)N2CCC(CC(=O)NC(C)CC)CC2)c1C (stereo not given)
702	Cn1c(=O)sc2cc(S(=O)(=O)N3CCC(C(=O)N4CCCC4)CC3)ccc21
658	CC(C)n1cc(C#N)c(N)n1
874	O=C(Nc1ccc(F)cc1F)c1cnc(-c2ccccc2)nc1-c1ccncc1
1450	Cc1sc2ncnc(N3CCCC(C)C3)c2c1C(=O)Nc1cc(F)ccc1Cl (stereo not given)
837	CCCn1cc(CCNS(=O)(=O)c2cccc(F)c2)c2cccnc21
614	Cc1cc(N2CCN(c3ccccn3)CC2)n2nc(-c3ccccc3)c(C)c2n1
784	O=C(c1cccc(F)c1)N1CCN(S(=O)(=O)c2cc3c4c(c2)CCC(=O)N4CCC3)CC1
602	CCc1cc(=O)n(CC(=O)NCc2ccccc2OC)c(N)n1
765	COc1cc(NC(=O)N2CCC(C)(C(=O)NCc3ccc(C)cc3)CC2)cc(OC)c1OC
556	CCC(=O)NCc1nc2c(n1C)CN(S(=O)(=O)c1c(C)c(C)cc(C)c1C)CC2
703	Cc1ccccc1C(=O)N1CCC2(C1)C(=O)Nc1ccccc12 (stereo not given)
613	O=C(Nc1ccccc1C(=O)NCCCN1CCCC1)C1=CSCCO1
625	CCCn1ccc2sc(C)c(C(=O)NC3CCN(Cc4ccccc4)CC3)c2c1=O
1130	Cc1ccc(-c2nc(-c3ccc4nnc(C)n4c3)no2)cc1C
964	O=C1C(NS(=O)(=O)c2ccc(C(F)(F)F)cc2)CCN1c1ccc(F)cc1 (stereo not given)
